39 compounds from US20240199651A1, “ANTIBACTERIAL COMPOUNDS” (JANSSEN SCIENCES IRELAND UNLIMITED COMPANY, priority 2021, published 2024) can be followed below.

Where two headings read alike, the source gives them in different places.

This data set can be described thus: Mitochondrial toxicity (Glu/Gal) assay. It counts as cell-based. To be noted: for Score: mitotoxicity score, Glu/Gal assay; for Δ IC50, glu/IC50, gal: ratio IC50 glu / IC50 gal. The source says:
The compounds of the invention/examples may have advantages associated with in vitro potency, kill kinetics (i.e. bactericidal effect) in vitro, PK properties, food effect, safety/toxicity (including liver toxicity, coagulation, 5-LO oxygenase), metabolic stability, Ames II negativity, MNT negativity, aqueous based solubility (and ability to formulate) and/or cardiovascular effect e.g. on animals (e.g. anesthetized guinea pig). Data that is generated/calculated may be obtained using standard methods/assays, for instance that are available in the literature or which may be performed by a supplier (e.g. Microsomal Stability Assay—Cyprotex, Mitochondrial toxicity (Glu/Gal) assay—Cyprotex, as well as literature CYP cocktail inhibition assays). GSH can be measured (reactive metabolites, glucuronidation) to observe if a dihydrodiol is observed by LCMS (fragmentation ions), which would correspond to a dihydroxylation on the core heterocycle.

The mark [1] stands for this setting: galactose medium (Glu/Gal mitotoxicity assay), read-out: IC50, gal.
Where [2] appears, read: glucose medium (Glu/Gal mitotoxicity assay), read-out: IC50, glu.

For the compound `CCc1nc2ccc(Cl)cn2c1C(=O)NCc1ccc(-c2nc3n(n2)CCN(S(=O)(=O)C(F)(F)F)C3)c(F)c1` [Compound 3], the Score result is “[x]1” and the “Δ IC50, glu/IC50, gal” value was found to be 0.91. Moreover, the IC50 – broadly, the concentration at which inhibition is half-maximal – (read-out: IC50, gal) is 73.1 µM. Moreover, where the note is “read-out: IC50, glu”, the IC50 stood at 66.2 µM.
Consider `O=C(NCc1ccc(-c2nc3n(n2)CCN(S(=O)(=O)C(F)(F)F)C3)c(F)c1)c1c(C(F)F)nc2ccc(Cl)cn12` [Compound 5], for which the Score entry was “[x]1” and the “Δ IC50, glu/IC50, gal” value was 0.96. Moreover, the IC50 (read-out: IC50, gal) turned out to be 117 µM. Further, the IC50 (read-out: IC50, glu) stood at 112 µM.
As to `CCc1nc2cc(C)c(Cl)cn2c1C(=O)NCc1ccc(-c2nc3n(n2)CCN(S(=O)(=O)C(F)(F)F)C3)c(F)c1` [Compound 9], the Score entry was “[x]1” and the “Δ IC50, glu/IC50, gal” value came to 1.15. Further, the IC50 (read-out: IC50, gal) came to 19.9 µM. The IC50 (read-out: IC50, glu) was found to be 22.9 µM.
With `CCc1nc2c(Cl)c(OC)ccn2c1C(=O)NCc1ccc(-c2nc3n(n2)CCN(S(=O)(=O)C(F)(F)F)C3)c(F)c1` [Compound 11], the “Δ IC50, glu/IC50, gal” value is over 2.93. Where the note is “read-out: IC50, gal”, the IC50 was found to be 68.2 µM. In addition, for the setting “read-out: IC50, glu”, the IC50 is over 200 µM.
`CCc1nc2cc(OC)c(Cl)cn2c1C(=O)NCc1cnc(-c2nc3n(n2)CCN(S(=O)(=O)C(F)(F)F)C3)c(F)c1` [Compound 16]: the half-inhibitory concentration (IC50) is, setting by setting: under setting [1], over 200 µM; under setting [2], over 200 µM.
Consider `CCc1nc2ncc(F)cn2c1C(=O)NCc1ccc(-c2nc3n(n2)CCN(S(=O)(=O)C(F)(F)F)C3)c(F)c1` [Compound 17], for which the IC50 is over 200 µM under setting [1] and over 200 µM under setting [2].
`CCc1nc2cc(C)c(Cl)cn2c1C(=O)NCc1cnc(-c2nc3n(n2)CCN(S(=O)(=O)C(F)(F)F)C3)c(F)c1` [Compound 20]: the Score result was “[x]1” and the “Δ IC50, glu/IC50, gal” value is over 1.3. The concentration for half-maximal inhibition (IC50) (read-out: IC50, gal) amounted to 154 µM. The IC50 (read-out: IC50, glu) was over 200 µM.
As to `CCc1nc2c(F)cc(Cl)cn2c1C(=O)NCc1ccc(-c2nc3n(n2)CCN(S(=O)(=O)C(F)(F)F)C3)cc1` [Compound 21], the Score result is “[x]1” and the “Δ IC50, glu/IC50, gal” value amounted to 1.65. For the setting “read-out: IC50, gal”, the IC50 was found to be 59.4 µM. In addition, the IC50 (read-out: IC50, glu) worked out at 97.9 µM.
Consider `CCc1nc2ccc(F)cn2c1C(=O)NCc1ccc(-c2nc3n(n2)CCN(S(=O)(=O)C(F)(F)F)C3)cc1` [Compound 22], for which the Score result is “[x]1” and the “Δ IC50, glu/IC50, gal” value was found to be 1.51. Also, the IC50 (read-out: IC50, gal) worked out at 62.6 µM. The IC50 (read-out: IC50, glu) turned out to be 94.7 µM.
In the case of `CCc1nc2cc(C)c(C)cn2c1C(=O)NCc1ccc(-c2nc3n(n2)CCN(S(=O)(=O)C(F)(F)F)C3)cc1` [Compound 23], the IC50 reads like this: under setting [1], over 200 µM; under setting [2], over 200 µM.
On to `CCc1nc2cc(Cl)c(C)cn2c1C(=O)NCc1ccc(-c2nc3n(n2)CCN(S(=O)(=O)C(F)(F)F)C3)cc1` [Compound 25], for which the “Δ IC50, glu/IC50, gal” value was over 2.26. Moreover, the half-maximal inhibitory concentration (IC50) (read-out: IC50, gal) stood at 22.1 µM. Further, for the setting “read-out: IC50, glu”, the IC50 is over 50 µM.
In the case of `CCc1nc2ncc(C(C)C)cn2c1C(=O)NCc1ccc(-c2nc3n(n2)CCN(S(=O)(=O)C(F)(F)F)C3)cc1` [Compound 26], the IC50 reads like this: under setting [1], over 200 µM; under setting [2], over 200 µM.
Consider `CCc1nc2ccc(C3CC3)cn2c1C(=O)NCc1ccc(-c2nc3n(n2)CCN(S(=O)(=O)C(F)(F)F)C3)cc1` [Compound 27], for which the “Δ IC50, glu/IC50, gal” value is reported as 2.34. For the same compound, the IC50 (read-out: IC50, gal) stood at 44.5 µM. Moreover, the 50% inhibitory concentration (IC50) (read-out: IC50, glu) is 104 µM.
In the case of `CCc1nc2ncc(C3CC3)cn2c1C(=O)NCc1ccc(-c2nc3n(n2)CCN(S(=O)(=O)C(F)(F)F)C3)cc1` [Compound 28], the IC50 by setting is: (read-out: IC50, gal) over 200 µM; (read-out: IC50, glu) over 200 µM.
As to `Cc1cnc2nc(C)c(C(=O)NCc3ccc(-c4nc5n(n4)CCN(S(=O)(=O)C(F)(F)F)C5)cc3)n2c1` [Compound 29], the IC50 is over 200 µM under setting [1] and over 200 µM under setting [2].
With `Cc1ccc2nc(C3CC3)c(C(=O)NCc3ccc(-c4nc5n(n4)CCN(S(=O)(=O)C(F)(F)F)C5)cc3)n2c1` [Compound 30], the Score result is “[x]1” and the “Δ IC50, glu/IC50, gal” value worked out at 1.35. For the same compound, under “read-out: IC50, gal”, the IC50 is 71.1 µM. Moreover, for the setting “read-out: IC50, glu”, the IC50 amounted to 95.7 µM.
In the case of `CCc1nc2n(c1C(=O)NCc1ccc(-c3nc4n(n3)CCN(S(=O)(=O)C(F)(F)F)C4)cc1)CCCC2` [Compound 31], the concentration for half-maximal inhibition (IC50) by setting is: under setting [1], over 200 µM; under setting [2], over 200 µM.
Consider `Cc1cn2c(C(=O)NCc3ccc(-c4nc5n(n4)CCN(S(=O)(=O)C(F)(F)F)C5)cc3)c(C)nc2s1` [Compound 32], for which the Score entry was “[x]3” and the “Δ IC50, glu/IC50, gal” value is over 12.72. Besides, the concentration for half-maximal inhibition (IC50) (read-out: IC50, gal) is 15.7 µM. Also, under “read-out: IC50, glu”, the IC50 was over 200 µM.
For `CCc1nc2nc(C)c(C)cn2c1C(=O)NCc1ccc(-c2nc3n(n2)CCN(S(=O)(=O)C(F)(F)F)C3)cc1` [Compound 33], the Score result is “[x]1” and the “Δ IC50, glu/IC50, gal” value is under 0.98. Besides, the IC50 (read-out: IC50, gal) is over 200 µM. Further, the IC50 (read-out: IC50, glu) came to 196 µM.
In the case of `Cc1ccc2nc(C)c(C(=O)NCc3ccc(-c4nc5n(n4)CCN(S(=O)(=O)C(F)(F)F)C5)cc3)n2c1` [Compound 34], the Score result was “[x]0” and the “Δ IC50, glu/IC50, gal” value is listed as over 1.13. Also, the IC50 (read-out: IC50, gal) is 44.2 µM. For the same compound, the 50% inhibitory concentration (IC50) (read-out: IC50, glu) is over 50 µM.
The corresponding values for `CCc1nc2ccc(C(C)C)cn2c1C(=O)NCc1ccc(-c2nc3n(n2)CCN(S(=O)(=O)C(F)(F)F)C3)cc1` [Compound 35] are “[x]0”, over 1.25, 40.1 µM and over 50 µM.
As for `CCc1nc2sc(C)cn2c1C(=O)NCc1ccc(-c2nc3n(n2)CCN(S(=O)(=O)C(F)(F)F)C3)cc1` [Compound 36], the Score result is “[x]0” and the “Δ IC50, glu/IC50, gal” value was over 1.26. Also, the IC50 (read-out: IC50, gal) came to 79.5 µM. Also, where the note is “read-out: IC50, glu”, the IC50 is over 100 µM.
Turning to `CCc1nc2ncc(C)cn2c1C(=O)NCc1ccc(-c2nc3n(n2)CCNC3)cc1` [Compound 37], the IC50 is over 200 µM under setting [1] and over 200 µM under setting [2].
Regarding `Cc1nc2sc(Cl)cn2c1C(=O)NCc1ccc(-c2nc3n(n2)CCN(S(=O)(=O)C(F)(F)F)C3)cc1` [Compound 38], the Score result is “[x]3” and the “Δ IC50, glu/IC50, gal” value is on record as over 11.52. Besides, the IC50 (read-out: IC50, gal) was 8.68 µM. For the same compound, the IC50 (read-out: IC50, glu) was over 100 µM.
Turning to `CCc1nc2ncc(C)cn2c1C(=O)NCc1ccc(-c2nc3n(n2)CCN(C(C)=O)C3)cc1` [Compound 40], the IC50 was over 200 µM under setting [1] and over 200 µM under setting [2].
Turning to `CCc1nc2ncc(C)cn2c1C(=O)NCc1ccc(-c2nc3n(n2)CCN(S(=O)(=O)N(C)C)C3)cc1` [Compound 41], the half-inhibitory concentration (IC50) is, setting by setting: under setting [1], over 200 µM; under setting [2], over 200 µM.
With `CCc1nc2ncc(C)cn2c1C(=O)NCc1ccc(-c2nc3n(n2)CCN(C(=O)C(F)(F)F)C3)cc1` [Compound 43], the IC50 reads like this: under setting [1], over 200 µM; under setting [2], over 200 µM.
On to `CCc1nc2nc3c(cn2c1C(=O)NCc1ccc(-c2nc4n(n2)CCN(S(=O)(=O)C(F)(F)F)C4)cc1)CCC3` [Compound 45], for which the IC50 by setting is: under setting [1], over 100 µM; under setting [2], over 100 µM.
As for `CCc1nc2ccc(C)cn2c1C(=O)NCc1ccc(-c2nc3n(n2)CCN(C(C)=O)C3)cc1` [Compound 46], the 50% inhibitory concentration (IC50) was over 200 µM under setting [1] and over 200 µM under setting [2].
As to `CCc1nc2ccc(C)cn2c1C(=O)NCc1ccc(-c2nc3n(n2)CCN(S(=O)(=O)N2CCCC2)C3)cc1` [Compound 48], the IC50 reads like this: under setting [1], over 200 µM; under setting [2], over 200 µM.
Consider `CCc1nc2ncc(C)cn2c1C(=O)NCc1ccc(-c2nc3n(n2)CCN(C)C3)cc1` [Compound 50], for which the IC50 runs as follows: under setting [1], over 200 µM; under setting [2], over 200 µM.
`CCc1nc2ccc(C)cn2c1C(=O)NCc1ccc(-c2nc3n(n2)CCN(S(=O)(=O)N(C)C)C3)cc1` [Compound 51]: the IC50 reads like this: under setting [1], over 200 µM; under setting [2], over 200 µM.
For the compound `CCc1nc2ccc(C)cn2c1C(=O)NCc1ccc(-c2nc3n(n2)CCNC3)cc1` [Compound 52], the IC50 is, setting by setting: under setting [1], over 200 µM; under setting [2], over 200 µM.
For `CCc1nc2ccc(C)cn2c1C(=O)NCc1ccc(-c2nc3n(n2)CCN(C(=O)C(F)(F)F)C3)cc1` [Compound 53], the IC50 is over 200 µM under setting [1] and over 200 µM under setting [2].
Turning to `CCc1nc2ncc(C)cn2c1C(=O)NCc1ccc(-c2nc3n(n2)CCN(CCOC)C3)cc1` [Compound 54], the IC50 under setting [1] was over 200 µM and the IC50 under setting [2] was over 200 µM.
For the compound `CCc1nc2ccc(C)cn2c1C(=O)NCc1ccc(-c2nc3n(n2)CCN(CCOC)C3)cc1` [Compound 55], the Score result is “[x]1” and the “Δ IC50, glu/IC50, gal” value was over 1.15. For the setting “read-out: IC50, gal”, the IC50 is 174 µM. For the same compound, the IC50 (read-out: IC50, glu) is over 200 µM.
Consider `CCc1nc2ccc(C)cn2c1C(=O)NCc1ccc(-c2nc3n(n2)CCN(C)C3)cc1` [Compound 56], for which the concentration for half-maximal inhibition (IC50) under setting [1] was over 200 µM and the IC50 under setting [2] is over 200 µM.
For `CCc1nc2ncc(C)cn2c1C(=O)NCc1ccc(-c2nc3n(n2)CCN(S(=O)(=O)C(F)(F)F)C3)s1` [Compound 57], the half-inhibitory concentration (IC50) under setting [1] was over 200 µM and the IC50 under setting [2] is over 200 µM.
As for `CCc1nc2ncc(C)cn2c1C(=O)NCc1ccc(C2CN(c3nc4n(n3)CCN(S(=O)(=O)C(F)(F)F)C4)C2)cc1` [Compound 58], the “Δ IC50, glu/IC50, gal” value is over 3.44. Moreover, the IC50 (read-out: IC50, gal) was 58.2 µM. For the same compound, where the note is “read-out: IC50, glu”, the IC50 was over 200 µM.
